The results in this text go back to ChEMBL document CHEMBL4219154, “Design, synthesis, nuclear localization, and biological activity of a fluorescent duocarmycin analog, HxTfA” (Bioorg Med Chem Lett, 2018).

Calls of active or inactive are those of the source. No cut-off for these calls is given here.

In data set [1] the test system is A549. The experiment in a line: Induction of apoptosis in human A549 cells assessed as increase in cleaved caspase 3 level at 1 uM incubated for 5 hrs followed by 24 hrs incubation in drug free medium by immunofluorescence assay. Format: functional, cell-based.
Data set [2] has as its system Escherichia coli. As to the kind of experiment: Induction of DNA cleavage at AT-mixed sequence 5'-TTTTA-3'(843) in Escherichia coli pUC18 DNA at 0.1 to 30 uM after 5 hrs by electrophoresis analysis.
The nature of data set [3]: Drug uptake in nucleus of human A549 cells at 50 to 100 uM after 24 hrs by mitrotracker red CMXRos staining based fluorescence microscopy. Format: ADME, subcellular. The note with it: a549, 24 h.
Data set [4] relates to A549. The experiment in a line: Induction of apoptosis in human A549 cells assessed as decrease in survivin level at 1 to 20 uM incubated for 5 hrs followed by 24 hrs incubation in drug free medium by immunoblotting based confocal microscopy. Type of data set: functional, cell-based.
The nature of data set [5]: Drug uptake in nucleus of human A549 cells at 1 uM after 24 hrs by propidium iodide staining based confocal microscopy. Type of data set: ADME, subcellular. The conditions noted are these: a549, 24 h.
Another data set relates to Plasmodium falciparum. As to the kind of experiment: Antiplasmodial activity against Plasmodium falciparum 3D7 infected in red blood cells after 48 hrs. Format: functional, organism-based. The note with it: 3D7, 48 h.
The subject of data set [6] is A549. As to the kind of experiment: Cytotoxicity against human A549 cells after 4 days by MTT assay. The conditions noted are these: A549, 96 h. Type of data set: functional, cell-based.
For data set [7], the system named is Escherichia coli. As to the kind of experiment: Alkylating activity at N3 position of 5'-AAAAA-3' (865) in Escherichia coli pUC18 DNA at 1 uM after 5 hrs by electrophoresis analysis. Type of data set: functional.
The test system of data set [8] is A549. As to the kind of experiment: Induction of apoptosis in human A549 cells assessed as decrease in Bcl-xL level at 0.1 to 20 uM incubated for 5 hrs followed by 24 hrs incubation in drug free medium by immunoblotting based confocal microscopy. Format: functional, cell-based.
Data set [9] has as its system A549. As to the kind of experiment: Induction of apoptosis in human A549 cells assessed as increase in gamma-H2AX level at 0.1 to 10 uM incubated for 5 hrs followed by 24 hrs incubation in drug free medium by immunofluorescence assay. Format: functional, cell-based.
For data set [10], the system named is A549. The experiment in a line: Induction of apoptosis in human A549 cells assessed as increase in gamma-H2AX level at 0.1 to 5 uM incubated for 5 hrs followed by 24 hrs incubation in drug free medium by confocal microscopy. Type of data set: functional, cell-based.
Data set [11] has as its system A549. As to the kind of experiment: Induction of apoptosis in human A549 cells assessed as decrease in Bcl-xL level at 0.05 to 20 uM incubated for 5 hrs followed by 24 hrs incubation in drug free medium by immunoblotting based confocal microscopy. Format: functional, cell-based.
The test system of a further data set is B16. As to the kind of experiment: Cytotoxicity against mouse B16 cells after 3 days by MTT assay. The note with it: B16, 72 h. Type of data set: functional, cell-based.
Data set [12] concerns A549. The experiment in a line: Cytotoxicity against human A549 cells after 3 days by MTT assay. Type of data set: functional, cell-based. The note with it: A549, 72 h.
For data set [13], the system named is Escherichia coli. The experiment in a line: Alkylating activity at N3 position of 5'-AAAAA-3' (865) in Escherichia coli pUC18 DNA at 0.1 uM after 5 hrs by electrophoresis analysis. Type of data set: functional.
Data set [14] concerns A549. The experiment in a line: Induction of apoptosis in human A549 cells assessed as decrease in survivin level at 0.1 uM incubated for 5 hrs followed by 24 hrs incubation in drug free medium by immunoblotting based confocal microscopy. Format: functional, cell-based.

`COc1ccc(-c2nc3ccc(C(=O)N4CC(CCl)c5c4cc(O)c4ccoc54)cc3[nH]2)cc1` (stereo not given): the result in the data set with A549 [1], with Escherichia coli [2], with A549 [4], in the data set on Escherichia coli [7], with A549 [9] and in the data set on A549 [10] was Active. Moreover, the Drug uptake entry in data set [3] and in [5] was “Active” in each case. The results for the IC50 in the data set on Plasmodium falciparum and in the data set with A549 [6] were 3.7 nM and 26 nM, respectively. Also, the result with A549 [8] was inactive.
For the molecule `COc1cc2cc(C(=O)N3CC(CCl)c4c3cc(O)c3ccoc43)[nH]c2c(OC)c1OC` (stereo not given), in the data set with A549 [11], the outcome was inactive. In addition, the IC50 in the data set with B16 was 40 nM; in the data set with A549 [12], 53 nM; in the data set with Plasmodium falciparum, 0.064 nM; with A549 [6], 3.7 nM. The outcome in the data set with Escherichia coli [13], with A549 [14], in the data set with A549 [9] and in the data set with A549 [10] was Active.
